Entries after “also recorded” stand apart in the source; their conditions may differ. Where a name gives a salt, the structure may show the parent alone.

Results on six compounds are retold here after US6753456B2, “Point mutant mice with hypersensitive alpha 4 nicotinic receptors: dopaminergic pathology and increased anxiety” (California Institute of Technology, priority 2000, dated 2004).

For data set [1], the target named is T1, mutated (α4 Leu9′Ser) rat α4β2 receptors (Rattus norvegicus, UniProt P09483+P12390, L285S).
T1 construct: expressed in transfected cells; host or cells: Xenopus oocytes (capped mRNA injected, α4L9′S/β2 1:1)
T1 sequence (P09483 31-630 L285S): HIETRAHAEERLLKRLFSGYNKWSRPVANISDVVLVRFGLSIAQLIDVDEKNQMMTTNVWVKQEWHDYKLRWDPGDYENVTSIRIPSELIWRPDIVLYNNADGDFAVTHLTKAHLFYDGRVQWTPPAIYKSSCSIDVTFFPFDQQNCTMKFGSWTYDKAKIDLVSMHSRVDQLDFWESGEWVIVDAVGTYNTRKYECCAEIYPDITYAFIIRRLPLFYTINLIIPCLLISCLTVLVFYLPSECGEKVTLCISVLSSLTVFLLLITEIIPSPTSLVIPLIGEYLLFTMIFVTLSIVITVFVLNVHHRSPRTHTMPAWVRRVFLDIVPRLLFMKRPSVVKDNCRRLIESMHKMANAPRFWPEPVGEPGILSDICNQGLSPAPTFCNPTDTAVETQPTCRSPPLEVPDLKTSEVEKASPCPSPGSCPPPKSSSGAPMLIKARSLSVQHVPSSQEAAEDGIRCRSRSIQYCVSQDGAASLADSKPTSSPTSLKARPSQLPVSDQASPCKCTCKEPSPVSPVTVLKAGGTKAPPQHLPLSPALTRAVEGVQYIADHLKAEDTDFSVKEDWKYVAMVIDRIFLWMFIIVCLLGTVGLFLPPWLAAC
T1 sequence (P12390 25-500): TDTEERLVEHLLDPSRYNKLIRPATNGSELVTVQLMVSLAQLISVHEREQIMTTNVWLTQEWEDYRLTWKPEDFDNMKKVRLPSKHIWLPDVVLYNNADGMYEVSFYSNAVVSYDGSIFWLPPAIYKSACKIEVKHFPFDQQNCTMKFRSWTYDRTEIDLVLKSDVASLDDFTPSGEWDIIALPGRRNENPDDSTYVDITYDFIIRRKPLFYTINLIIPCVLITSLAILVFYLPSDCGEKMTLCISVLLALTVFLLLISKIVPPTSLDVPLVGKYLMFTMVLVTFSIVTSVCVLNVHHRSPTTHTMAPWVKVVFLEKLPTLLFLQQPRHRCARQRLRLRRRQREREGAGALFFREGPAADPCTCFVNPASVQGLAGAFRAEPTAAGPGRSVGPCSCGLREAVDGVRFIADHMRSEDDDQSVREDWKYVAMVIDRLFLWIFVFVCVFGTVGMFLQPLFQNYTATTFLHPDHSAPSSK
Description: Two-electrode voltage clamp, agonist concentration-response of mutated α4β2 receptors expressed in Xenopus oocytes. The format is cell-based. The protocol: FIG. 1C, the agonist is choline.
Xenopus Oocyte Injections and Electrophysiology The α4 and β2 subunits were subcloned into pAMV-PA (Nowak, et al.(1998) Methods Enzymol. 293, 504-529). Capped mRNA transcripts were prepared, and α4/β2 (2 ng, 1:1) or α4L9′/β2 (0.2-0.5 ng, 1:1) were microinjected into Xenopus oocytes. Twenty-four to seventy-two hours later, two-electrode voltage clamp recordings were made in solutions containing zero […].
Chimeric males from the resulting two mouse lines, neo-intact and neo-deleted, were bred to C57BL/6 females to generate animals heterozygous for the mutation, and mice were tested for the mutation by sequencing of genomic DNA (FIG. 1F).
Background: Two-electrode voltage clamp is typically applied to oocytes expressing channels or transporters.

Data set [2] deals with heterozygous L9′S α4 and wild type mice. Nature of the data set: Behavioral scoring of nicotine-induced seizure activity and Straub tail. It counts as in vivo, mouse. The source says:
To pharmacologically characterize the L9′S mutation effects on seizure induction in the α4 mice behavioral responses to pharmacologic stimulation were videotaped and scored.

Data set [3] has as its system nAChRs. As to conditions: Damaj, et al. (1999); cited from earlier work.
Data set [4] has as its system α4β2 receptors. As to conditions: rats, Felix and Levin (1997); cited from earlier work.
The subject of data set [5] is heterozygous and WT mice. As to conditions: nicotine 0.1 mg/kg. The source says: Mouse electroencephalography can also be used to examine the susceptibility of transgenic mice to seizures. A surgical and electrophysiological rig that allows simultaneous video-electroencephalographic (EEG) recordings in free moving animals can be used. For EEG electrode implants, mice are anesthetized with a ketamine-xylazine mixture, 0.2 mm-diameter tungsten wire electrodes are positioned through drilled holes in the cranium in a twisted pair configuration and placed stereotactically within different regions of the brain. A three-pin microconnector (ground electrode plus two recording electrodes) is cemented to the skull surface. Following surgery, mice are allowed to recover for 48 hours.

Data set [6] relates to WT and heterozygous (het) neo-intact mutants. Description: Ambulation (locomotion) of WT and heterozygous neo-intact mice after drug injection. It counts as in vivo, mouse.
Data set [7] concerns neurons from transgenic L9′S and WT mice. As to conditions: 10 μM nicotine. The source says:
The paradigms described above can be implemented in slices derived from other brain areas such as the cortex and the midbrain. Large inhibitory and excitatory potentials can be recorded from pyramidal cells in cortical slices (Hasselmo and Barkai (1995). J. Neurosci 15, 6592-604).

Data set [8] concerns cells in acute midbrain slices from α4 mutant heterozygous and wild type animals. Nature of the data set: Electrophysiology on acute midbrain slices. As to conditions: heterozygous vs wild type. It counts as cell-based, mouse.
Description: Electrophysiological studies on brain slices derived from transgenic α4 mice. Slices obtained from frontal cerebral cortex, hippocampus, and midbrain can be used for field and intracellular recordings. Field recordings serve to determine whether various compounds cause or block synchronized firing in these neuronal ensembles. Whole-cell patch recordings provide information regarding activation and/or desensitization of nAChRs in individual neurons when exposed to various agonists and antagonists, as well as the effects of these compounds on firing rates. Because interneurons express most of the α4 receptors, recordings from interneurons and IPSC's in pyramidal cells are useful for study.

For `CCN(CC)CCCCCCCCOC(=O)c1cc(OC)c(OC)c(OC)c1.Cl` [8-(diethylamino)octyl 3,4,5-trimethoxyben-zoate hydrochloride], the “effect on increased leakage currents in oocytes expressing α4L9′S/β2 receptor” value in data set [1] (500 nM, nine oocytes) is given as “blockable”.
Regarding `CNC1(C)C2CCC(C2)C1(C)C` (stereo not shown) [mecamylamine], in data set [2] (mecamylamine 2 mg/kg, both hets and WT), the “effect on nicotine effects (seizures, Straub tail)” value was “partially blocked”. Besides, the “block of nicotine-induced seizures” value in data set [3] was “effective nicotine-induced seizure blocker”.
Regarding `CO[C@H]1CC=C2CCN3CCC4=C(CC(=O)OC4)[C@]23C1` [DHβE, Dihydro-β-erythroidine], the seizure induction result in data set [4] is reported as “induce seizures”.
Regarding `CN1CCCC1c1cccnc1` (stereo not shown) [nicotine], the “sensitivity of L9′S nAChRs expressed in frog oocytes to the ligand” value in data set [1] (summary statement) is given as “increased sensitivity”. Also, the “shift of the dose-response relation to the left by the Leu-9′-Ser mutation (increase in agonist sensitivity)” value in data set [1] (α4β2 receptor tested in oocytes, mutant vs WT) is on record as “about 30 fold”. Besides, the “doses required for severe tonic-clonic seizures in WT animals” value in data set [2] (WT) is recorded as over 10 mg/kg. In addition, in data set [2] (summary statement), the “threshold to nicotine-induced seizures in L9′S knock-in mice” value is reported as “reduced threshold”. The “EEG recordings of WT” value in data set [5] (WT) is given as “unaffected”. Besides, in data set [5] (heterozygous), the “EEG response of a heterozygous mouse” value is recorded as “Rapid-burst discharges” and the “amplitude of 6 Hz theta rhythm in a heterozygous mouse” value is listed as “two-fold increased amplitude”. In addition, in data set [6] (nicotine 0.02 mg/kg i.p., WT mice), the “effect on locomotor activity of WT mice” value was “no significant difference; also recorded: not affected”. Besides, the “effect on locomotor activity of heterozygous knock-in mice” value in data set [6] (nicotine 0.02 mg/kg i.p., heterozygous mice, 5-15 min after injection) is on record as “significant reduction of locomotor activity; also recorded: sharply reduces the level of activity”. Moreover, the “response of WT-derived cells” value in data set [7] (WT) is given as “remained silent or required much larger concentrations to be activated”. For the same compound, the “response of neurons from transgenic mice” value in data set [7] (majority of neurons) is “responded with spontaneous bursts”. Besides, the “concentrations to which heterozygous cells respond relative to those activating receptors in wild type slices” value in data set [8] is listed as “ten times lower”.
Take `C[N+](C)(C)CCO` [choline]: in data set [1] (choline about 10 μM), the “activation of the mutated receptor, % of maximal values” came to 20%.
Turning to `C[C@H](N)Cc1ccccc1` [amphetamine, d-amphetamine sulfate], in data set [6] (5 mg/kg i.p., about 3-month-old WT and heterozygous mice), the “locomotor response in young mice” value is reported as “stimulated locomotion”. In addition, the “locomotor response of heterozygous mice at 11 months vs 3 months” value in data set [6] (5 mg/kg i.p., heterozygous, 11 months of age) is “declines significantly; also recorded: reduced amphetamine-induced locomotion”.
